{
  "source": "patent US7183075B2",
  "about": "“Purified and isolated potassium-chloride cotransporter nucleic acids and polypeptides and therapeutic and screening methods using same” (Vanderbilt University, priority 2000, dated 2007)",
  "target": "T1, rabKCC1 (Oryctolagus cuniculus, UniProt Q28677)",
  "T1 construct": "a full-length rabbit KCC1 cDNA was subcloned into pGEMHE; expressed in transfected cells; host or cells: Xenopus laevis oocytes injected with cRNA",
  "T1 sequence (Q28677 1-1085)": "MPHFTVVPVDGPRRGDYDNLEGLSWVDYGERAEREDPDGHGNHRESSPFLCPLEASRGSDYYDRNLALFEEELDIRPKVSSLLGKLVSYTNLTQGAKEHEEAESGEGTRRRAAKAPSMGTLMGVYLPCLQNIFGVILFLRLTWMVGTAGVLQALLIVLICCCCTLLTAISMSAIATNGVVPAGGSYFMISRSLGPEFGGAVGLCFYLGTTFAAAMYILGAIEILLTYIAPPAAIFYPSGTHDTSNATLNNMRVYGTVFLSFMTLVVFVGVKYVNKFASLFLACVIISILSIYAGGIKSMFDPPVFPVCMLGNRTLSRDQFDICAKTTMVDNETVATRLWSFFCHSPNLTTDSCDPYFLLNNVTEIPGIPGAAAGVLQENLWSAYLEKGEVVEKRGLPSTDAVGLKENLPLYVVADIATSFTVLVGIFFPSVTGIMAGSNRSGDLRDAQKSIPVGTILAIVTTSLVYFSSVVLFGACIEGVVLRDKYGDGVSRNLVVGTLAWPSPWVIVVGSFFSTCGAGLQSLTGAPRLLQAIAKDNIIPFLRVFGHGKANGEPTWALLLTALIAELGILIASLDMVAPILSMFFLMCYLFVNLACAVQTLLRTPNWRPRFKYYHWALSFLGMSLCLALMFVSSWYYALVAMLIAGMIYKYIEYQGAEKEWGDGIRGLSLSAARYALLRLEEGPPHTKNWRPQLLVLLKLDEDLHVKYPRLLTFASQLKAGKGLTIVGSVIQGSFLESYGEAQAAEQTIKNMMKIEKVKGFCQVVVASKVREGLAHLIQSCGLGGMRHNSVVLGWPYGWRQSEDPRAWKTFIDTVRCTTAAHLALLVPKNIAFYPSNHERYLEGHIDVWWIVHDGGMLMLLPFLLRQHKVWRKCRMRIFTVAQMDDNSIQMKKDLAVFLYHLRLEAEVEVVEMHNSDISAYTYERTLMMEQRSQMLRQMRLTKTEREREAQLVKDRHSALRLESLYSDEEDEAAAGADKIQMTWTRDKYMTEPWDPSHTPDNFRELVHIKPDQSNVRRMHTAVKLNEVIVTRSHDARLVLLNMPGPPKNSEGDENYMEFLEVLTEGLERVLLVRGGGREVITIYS",
  "assay": "86Rb+ uptake (K+-Cl- cotransport) in Xenopus oocytes injected with rabKCC1 cRNA",
  "type": "cell-based, rabbit",
  "conditions": "for KCC1 function remaining: 100 μM DIDS; for KCC1 function (86Rb+ uptake, % of control): 2 mM diuretic; for effect on activation of KCC1 by cell swelling: calyculin A 100 nM, okadaic acid 1 nM, cypermethrin 100 pM",
  "protocol": "On the next day, defolliculated stage V–VI oocytes were injected with 50 nl of water or a solution containing cRNA at a concentration of 0.25–0.5 μg/μl (25 ng/oocyte). […] The incubation medium was changed every 24 hours.\nFor functional comparison with mKCC4, a full-length rabbit KCC1 cDNA was subcloned into pGEMHE. […] To prepare a template for cRNA, the rabbit KCC1 and […] cDNAs were linearized at the 3′-end using NheI, and cRNA was transcribed in vitro using the T7 RNA polymerase and the mMESSAGE mMACHINE kit (Ambion, Inc. of Austin, Tex.). Transcription product integrity was confirmed on agarose gels, and concentration was determined by absorbance reading at 260 nm (DU 640 available from Beckman of Fullerton, Calif.).\nK^+—Cl^− cotransport was assessed by measuring tracer ^86Rb^+ uptake (NEN® Life Science Products of Boston, Mass.) in experimental groups of at least 15 oocytes. […] Isotonic conditions were generated by supplementing the same solutions with 3.5 g/100 ml sucrose to reach isosmolar conditions for oocytes (˜210 mOsm/kg). Ouabain was added to prevent ^86Rb^+ uptake via the Na^+—K^+-ATPase.\nAll uptake assays were performed at 32° C. At the end of the uptake period, oocytes were washed five times in ice-cold uptake solution without isotope to remove extracellular fluid tracer. Oocytes were dissolved in 10% SDS, and tracer activity was determined for each oocyte by β-scintillation counting.\nTo determine the ion transport kinetics of KCC4 and KCC1, ^86Rb^+ uptake experiments were performed in variable concentrations of K^+ and Cl^−. The sensitivity for several inhibitors was assessed by exposing groups of oocytes to the inhibitors at concentrations varying from […] to 2 mM. For these experiments, the desired concentration of the inhibitor was present during both the incubation and uptake periods, except when noted.",
  "key": {"[1]": {"conditions": "KCC1, counterion fixed at 50 mM, hypotonic"}, "[2]": {"conditions": "KCC1, counterion fixed at 50 mM, hypotonic, read-out: apparent Km for extracellular ion"}, "[3]": {"conditions": "2 mM extracellular K+, hypotonic"}, "[4]": {"conditions": "50 mM extracellular K+, hypotonic"}},
  "note": "Like-named read-outs stand apart in the source and are kept apart here.",
  "data": [
    {"compound": "[Ba+2].[Cl-].[Cl-]", "note": "[BaCl2]", "values": [
      {"measurement": "KCC1 function, % of control", "setting": "10 mM BaCl2 in hypotonic uptake medium", "value": "79±4.2", "unit": "%"}
    ]},
    {"compound": "Cl", "note": "[Chloride]", "values": [
      {"measurement": "Hill coefficient", "setting": "KCC1", "value": "1.3±0.5"},
      {"measurement": "apparent Vmax for extracellular ion", "setting": "[1]", "value": "14,930±2,822 pmol×oocyte^−1×hour^−1"},
      {"measurement": "Km", "setting": "[2]", "value": "17.2 ± 8.3", "unit": "mM"},
      {"measurement": "Km", "setting": "KCC1, read-out: Chloride Km", "value": 17.2, "unit": "mM"}
    ]},
    {"compound": "O=S(=O)(O)c1cc(N=C=S)ccc1C=Cc1ccc(N=C=S)cc1S(=O)(=O)O", "note": "[DIDS]", "values": [
      {"measurement": "KCC1 function remaining", "setting": "[3]", "value": "85±6", "unit": "%"},
      {"measurement": "KCC1 function remaining", "setting": "[4]", "value": "13±2", "unit": "%"}
    ]},
    {"compound": "CCCCC1(C2CCCC2)Cc2cc(OCC(=O)O)c(Cl)c(Cl)c2C1=O", "note": "(centres unmarked) [DIOA]", "values": [
      {"measurement": "effect on KCC1-induced 86Rb+ uptake", "setting": "100 μM DIOA, hypotonic", "value": "inhibition"}
    ]},
    {"compound": "CCN1C(=O)C=CC1=O", "note": "[NEM, N-ethylmaleimide]", "values": [
      {"measurement": "reduction of KCC1-induced 86Rb+ uptake", "setting": "1 mM NEM, hypotonic", "value": 55, "unit": "%"},
      {"measurement": "fold activation of KCC1", "setting": "1 mM NEM, isotonic", "value": 2.6, "unit": "fold"},
      {"measurement": "86Rb+ uptake in NEM-treated group", "setting": "KCC1, 1 mM NEM, isotonic", "value": "319±76", "unit": "pmol×oocyte^−1×hour^−1"}
    ]},
    {"compound": "[K+]", "note": "[Potassium]", "values": [
      {"measurement": "Hill coefficient", "setting": "KCC1", "value": "1.04±0.13"},
      {"measurement": "apparent Vmax for extracellular ion", "setting": "[1]", "value": "39,540±2,199 pmol×oocyte^−1×hour^−1"},
      {"measurement": "Km", "setting": "[2]", "value": "25.5 ± 3.2", "unit": "mM"},
      {"measurement": "Km", "setting": "KCC1, read-out: Potassium Km", "value": 25.5, "unit": "mM"}
    ]},
    {"compound": "CCCCNc1cc(C(=O)O)cc(S(N)(=O)=O)c1Oc1ccccc1", "note": "[bumetanide]", "values": [
      {"measurement": "KCC1 function (86Rb+ uptake, % of control)", "setting": "[3]", "value": "51±12", "unit": "%"},
      {"measurement": "KCC1 function (86Rb+ uptake, % of control)", "setting": "[4]", "value": "19±7", "unit": "%"},
      {"measurement": "IC50", "setting": "KCC1, 10 mM extracellular K+, read-out: apparent half-maximal inhibition (K=0.5) of Cl−-dependent 86Rb+ uptake", "value": "~180", "unit": "µM"}
    ]},
    {"compound": "COC[C@@H]([C@H](O)[C@H](O)C(=O)NCC[C@H](C)c1nc(/C=C/C[C@@H]2O[C@]3(C[C@@H](O)[C@@H]2C)O[C@H]([C@H](C[C@H](O)[C@H](C)[C@H](O)[C@H](C)/C=C(C)/C(C)=C/C=C/C(C)=C\\C#N)OC)[C@H](OP(=O)(O)O)C3(C)C)co1)N(C)C", "note": "[calyculin A]", "values": [
      {"measurement": "effect on activation of KCC1 by cell swelling", "setting": "hypotonic", "value": "completely prevents the activation"}
    ]},
    {"compound": "CC1(C)C(C=C(Cl)Cl)C1C(=O)OC(C#N)c1cccc(Oc2ccccc2)c1", "note": "(centres unmarked) [cypermethrin]", "values": [
      {"measurement": "effect on activation of KCC1 by cell swelling", "setting": "hypotonic", "value": "neither okadaic acid, nor cypermethrin prevented this activation"}
    ]},
    {"compound": "NS(=O)(=O)c1cc(C(=O)O)c(NCc2ccco2)cc1Cl", "note": "[furosemide]", "values": [
      {"measurement": "KCC1 function (86Rb+ uptake, % of control)", "setting": "[3]", "value": "9±2", "unit": "%"},
      {"measurement": "KCC1 function (86Rb+ uptake, % of control)", "setting": "[4]", "value": "18±8", "unit": "%"}
    ]},
    {"compound": "C=C1[C@@H](O)[C@@H]2O[C@]3(CC[C@H](/C=C/[C@@H](C)[C@@H]4CC(C)=C[C@@]5(O[C@H](C[C@@](C)(O)C(=O)O)CC[C@H]5O)O4)O3)CC[C@H]2O[C@@H]1[C@@H](O)C[C@H](C)[C@H]1O[C@@]2(CCCCO2)CC[C@H]1C", "note": "[okadaic acid]", "values": [
      {"measurement": "effect on activation of KCC1 by cell swelling", "setting": "hypotonic", "value": "neither okadaic acid, nor cypermethrin prevented this activation"}
    ]},
    {"compound": "NS(=O)(=O)c1cc2c(cc1Cl)NC(C(Cl)Cl)NS2(=O)=O", "note": "(centres unmarked) [trichlormethiazide]", "values": [
      {"measurement": "KCC1 function (86Rb+ uptake, % of control)", "setting": "[3]", "value": "64±4", "unit": "%"},
      {"measurement": "KCC1 function (86Rb+ uptake, % of control)", "setting": "[4]", "value": "74±8", "unit": "%"}
    ]},
    {"compound": "HgCl2 [Hg—Cl2]", "values": [
      {"measurement": "response of KCC1 to mercury", "setting": "50 μM HgCl2, hypotonic", "value": "resistant"}
    ]}
  ]
}
